Reference: patent US20260373266A1, “PROTEIN DEGRADERS AND USES THEREOF” (KYMERA THERAPEUTICS, INC., priority 2022, published 2026)

Biological target: T1, DCAF1 WD40 domain (residues 1077-1390) (Homo sapiens, UniProt Q9Y4B6)
T1 construct: DCAF1 WD40 domain (residues 1077-1390)
Test: DCAF1 binding assay by SPR (Biacore 8K+), DCAF1-3 KD
Conditions: 25 °C, read-out: DCAF1-3 SPR (KD)

T1 sequence (Q9Y4B6 1077-1390): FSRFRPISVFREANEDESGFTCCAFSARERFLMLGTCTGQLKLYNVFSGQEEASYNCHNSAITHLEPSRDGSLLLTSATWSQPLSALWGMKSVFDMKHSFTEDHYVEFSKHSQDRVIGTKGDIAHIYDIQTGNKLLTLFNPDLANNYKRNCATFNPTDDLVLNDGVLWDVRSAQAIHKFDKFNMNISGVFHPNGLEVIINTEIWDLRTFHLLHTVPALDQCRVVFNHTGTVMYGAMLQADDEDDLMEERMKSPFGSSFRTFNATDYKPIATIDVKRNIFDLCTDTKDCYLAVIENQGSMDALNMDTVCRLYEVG

Structure (SMILES) | Kd
c1ccc2c(N3CCC[C@@H](Nc4cc(N5CCOCC5)ncn4)C3)nccc2c1 [I-390] | > 200 µM
c1ccc2c(N3CCC[C@@H](Nc4cc(N5CCOCC5)ncn4)C3)cncc2c1 [I-391] | > 200 µM
c1ccc2c(N3CCC[C@@H](Nc4cc(N5CCOCC5)ncn4)C3)ccnc2c1 [I-392] | > 200 µM
c1cc(N2CCC[C@@H](Nc3cc(N4CCOCC4)ncn3)C2)c2cccnc2c1 [I-393] | > 200 µM
c1cc(N2CCC[C@@H](Nc3cc(N4CCOCC4)ncn3)C2)c2ccncc2c1 [I-394] | > 200 µM
c1cc(N2CCC[C@@H](Nc3cc(N4CCOCC4)ncn3)C2)c2cnccc2c1 [I-395] | > 200 µM
c1cnc2c(N3CCC[C@@H](Nc4cc(N5CCOCC5)ncn4)C3)cccc2c1 [I-396] | > 200 µM
c1ccc2nc(N3CCC[C@@H](Nc4cc(N5CCOCC5)ncn4)C3)ccc2c1 [I-397] | > 200 µM
c1ccc2cc(N3CCC[C@@H](Nc4cc(N5CCOCC5)ncn4)C3)ncc2c1 [I-398] | > 200 µM
c1ccc2ncc(N3CCC[C@@H](Nc4cc(N5CCOCC5)ncn4)C3)cc2c1 [I-399] | > 200 µM
c1cnc2ccc(N3CCC[C@@H](Nc4cc(N5CCOCC5)ncn4)C3)cc2c1 [I-400] | > 200 µM
c1cc2cc(N3CCC[C@@H](Nc4cc(N5CCOCC5)ncn4)C3)ccc2cn1 [I-401] | > 200 µM
c1cc2ccc(N3CCC[C@@H](Nc4cc(N5CCOCC5)ncn4)C3)cc2cn1 [I-402] | > 200 µM
c1cnc2cc(N3CCC[C@@H](Nc4cc(N5CCOCC5)ncn4)C3)ccc2c1 [I-403] | > 200 µM
Cc1cnc(N2CCOCC2)cc1N[C@@H]1CCCN(c2cccc(F)c2)C1 [I-404] | > 200 µM
Fc1cccc(N2CCC[C@@H](Nc3cc(N4CCOCC4)ncc3C(F)(F)F)C2)c1 [I-405] | > 200 µM
Fc1cccc(N2CCC[C@@H](Nc3cc(N4CCOCC4)ncc3Cl)C2)c1 [I-406] | > 200 µM
COc1cnc(N2CCOCC2)cc1N[C@@H]1CCCN(c2cccc(F)c2)C1 [I-407] | > 200 µM
N#Cc1cnc(N2CCOCC2)cc1N[C@@H]1CCCN(c2cccc(F)c2)C1 [I-408] | > 200 µM

Structure (SMILES) | Kd
Oc1cnc(N[C@@H]2CCCN(c3cccc(F)c3)C2)cc1N1CCOCC1 [I-409] | > 200 µM
OCc1cnc(N2CCOCC2)cc1N[C@@H]1CCCN(c2cccc(F)c2)C1 [I-410] | > 200 µM
Cc1sc(N2CCC[C@@H](Nc3cc(N4CCOCC4)ccn3)C2)nc1-c1ccccc1 [I-411] | > 200 µM
c1cncc(-c2csc(N3CCC[C@@H](Nc4cc(N5CCOCC5)ccn4)C3)n2)c1 [I-412] | > 200 µM
NS(=O)(=O)c1nc(N2CCC[C@@H](Nc3cc(N4CCOCC4)ccn3)C2)cs1 [I-413] | > 200 µM
N#Cc1nccc(N2CCC[C@@H](Nc3cc(N4CCOCC4)ccn3)C2)n1 [I-414] | > 200 µM
Cc1nc(N2CCC[C@@H](Nc3cc(N4CCOCC4)ccn3)C2)nc2ccccc12 [I-415] | 10 to 100 µM
c1cncc(-c2ccnc(N3CCC[C@@H](Nc4cc(N5CCOCC5)ccn4)C3)n2)c1 [I-416] | 10 to 100 µM
c1cnc2c(N3CCC[C@@H](Nc4cc(N5CCOCC5)ccn4)C3)cnn2c1 [I-417] | > 200 µM
Cc1nn(-c2ccccc2)c(C)c1N1CCC[C@@H](Nc2cc(N3CCOCC3)ccn2)C1 [I-418] | > 200 µM
CN1CCC(n2cc(N3CCC[C@@H](Nc4cc(N5CCOCC5)ccn4)C3)cn2)CC1 [I-419] | > 200 µM
c1ccc(Cn2cc(N3CCC[C@@H](Nc4cc(N5CCOCC5)ccn4)C3)cn2)cc1 [I-420] | > 200 µM
CC(C)Cn1cc(N2CCC[C@@H](Nc3cc(N4CCOCC4)ccn3)C2)cn1 [I-421] | > 200 µM
Cc1nn(CC(F)(F)F)cc1N1CCC[C@@H](Nc2cc(N3CCOCC3)ccn2)C1 [I-422] | > 200 µM
c1ccc2c(c1)nc(N1CCC[C@@H](Nc3cc(N4CCOCC4)ccn3)C1)c1nnnn12 [I-423] | > 200 µM
N#Cc1ncccc1N1CCC[C@@H](Nc2cc(N3CCOCC3)ccn2)C1 [I-424] | > 200 µM
O=C1Cc2cc(N3CCC[C@@H](Nc4cc(N5CCOCC5)ccn4)C3)ncc2N1 [I-425] | > 200 µM
FC(F)(F)Oc1ccc(N2CCC[C@@H](Nc3cc(N4CCOCC4)ccn3)C2)nc1 [I-426] | 10 to 100 µM
N#Cc1cc2c(nc1N1CCC[C@@H](Nc3cc(N4CCOCC4)ccn3)C1)CCC2 [I-427] | > 200 µM

Structure (SMILES) | Kd
Cc1cc(N2CCC[C@@H](Nc3cc(N4CCOCC4)ccn3)C2)cnc1OC(C)C [I-428] | > 200 µM
COC(=O)Cc1ccnc(N2CCC[C@@H](Nc3cc(N4CCOCC4)ccn3)C2)c1 [I-429] | 10 to 100 µM
CC(=O)Nc1cccnc1N1CCC[C@@H](Nc2cc(N3CCOCC3)ccn2)C1 [I-430] | > 200 µM
O=C1COc2cc(N3CCC[C@@H](Nc4cc(N5CCOCC5)ccn4)C3)cnc2N1 [I-431] | < 10 µM
Cc1nc(N2CCC[C@@H](Nc3cc(N4CCOCC4)ccn3)C2)ccc1CO [I-432] | > 200 µM
CC(C)Oc1cncc(N2CCC[C@@H](Nc3cc(N4CCOCC4)ccn3)C2)c1 [I-433] | 100 to 200 µM
O=C1Cc2cnc(N3CCC[C@@H](Nc4cc(N5CCOCC5)ccn4)C3)cc2N1 [I-434] | > 200 µM
c1ccc(Cc2ccc(N3CCC[C@@H](Nc4cc(N5CCOCC5)ccn4)C3)nc2)cc1 [I-435] | > 200 µM
c1ccc(Oc2cncc(N3CCC[C@@H](Nc4cc(N5CCOCC5)ccn4)C3)c2)cc1 [I-436] | 10 to 100 µM
c1ccc(-c2cc(N3CCC[C@@H](Nc4cc(N5CCOCC5)ccn4)C3)ccn2)nc1 [I-437] | 10 to 100 µM
NC(=O)C[C@H](NC(=O)c1ccc(C#Cc2ccccc2)cc1)c1cccc(Cl)c1 [I-438] | > 200 µM
NC(=O)C[C@H](NC(=O)c1ccc(-c2nc(C3CC3)n[nH]2)cc1)c1cccc(Cl)c1 [I-439] | > 200 µM
NC(=O)C[C@H](NC(=O)CNC1=Nc2ccccc2CC1)c1cccc(Cl)c1 [I-440] | > 200 µM
NC(=O)C[C@H](NC(=O)CCc1nc2c(F)cccc2[nH]1)c1cccc(Cl)c1 [I-441] | > 200 µM
CN1CC=CC[C@@H]1CC(=O)N[C@@H](CC(N)=O)c1cccc(Cl)c1 [I-442] | > 200 µM
Cn1cnc(C[C@H](O)C(=O)N[C@@H](CC(N)=O)c2cccc(Cl)c2)c1 [I-443] | > 200 µM
NC(=O)C[C@H](NC(=O)[C@@H]1CC[C@](O)(c2ccccc2)C1)c1cccc(Cl)c1 [I-444] | > 200 µM
NC(=O)C[C@H](NC(=O)[C@H]1C[C@@](O)(c2ccccc2)C1)c1cccc(Cl)c1 [I-445] | > 200 µM
C=CC(=O)N1CCN(c2ccnc(N[C@@H]3CCCN(c4cccc(F)c4)C3)c2)CC1 [I-446] | > 200 µM

Second part, the compound after the results:

Kd | Structure (SMILES)
10 to 100 µM | C=CC(=O)Nc1ccnc(N[C@@H]2CCCN(c3cccc(F)c3)C2)c1 [I-447]
> 200 µM | C=CC(=O)N(C)CCN(C)c1ccnc(N[C@@H]2CCCN(c3cccc(F)c3)C2)c1 [I-448]
> 200 µM | C=CC(=O)N1CCC[C@@H](Nc2cc(N3CCOCC3)ccn2)C1 [I-449]
> 200 µM | C=CC(=O)Nc1cccc(N2CCC[C@@H](Nc3cc(N4CCOCC4)ccn3)C2)c1 [I-450]
> 200 µM | C=CC(=O)NC1CCN(c2ccnc(N[C@@H]3CCCN(c4cccc(F)c4)C3)c2)CC1 [I-451]
> 200 µM | C=CC(=O)N1CCC(c2n[nH]cc2C(=O)N[C@@H](CC(N)=O)c2cccc(Cl)c2)CC1 [I-452]
> 200 µM | C=CC(=O)N1CCC(c2n[nH]cc2C(=O)N[C@@H](CC(N)=O)c2cccc(Cl)c2)C1 (stereo partly drawn) [I-453]
100 to 200 µM | C=CC(=O)NC1CCCN(c2ccnc(N[C@@H]3CCCN(c4cccc(F)c4)C3)c2)C1 (stereo partly drawn) [I-454]
> 200 µM | C=CC(=O)N1CC(c2n[nH]cc2C(=O)N[C@@H](CC(N)=O)c2cccc(Cl)c2)C1 [I-455]
> 200 µM | C=CC(=O)NC1CCN(c2ccnc(N[C@@H]3CCCN(c4cccc(F)c4)C3)c2)C1 (stereo partly drawn) [I-456]
10 to 100 µM | C=CC(=O)N1CC(N(C)c2ccnc(N[C@@H]3CCCN(c4cccc(F)c4)C3)c2)C1 [I-457]
> 200 µM | C=CC(=O)N1CCC(N(C)c2ccnc(N[C@@H]3CCCN(c4cccc(F)c4)C3)c2)C1 (stereo partly drawn) [I-458]
> 200 µM | C=CC(=O)N1CCCC(N(C)c2ccnc(N[C@@H]3CCCN(c4cccc(F)c4)C3)c2)C1 (stereo partly drawn) [I-459]
10 to 100 µM | C=CC(=O)N1CCC(N(C)c2ccnc(N[C@@H]3CCCN(c4cccc(F)c4)C3)c2)CC1 [I-460]
> 200 µM | C=C1CCCN(c2ccnc(N[C@@H]3CCCN(c4cccc(F)c4)C3)c2)C1=O [I-461]
10 to 100 µM | C=CC(=O)N(C)CCCN(C)c1ccnc(N[C@@H]2CCCN(c3cccc(F)c3)C2)c1 [I-462]
> 200 µM | C=CC(=O)N(C)C1CC(N(C)c2ccnc(N[C@@H]3CCCN(c4cccc(F)c4)C3)c2)C1 (stereo partly drawn) [I-463]
> 200 µM | C=CC(=O)N1CCC1C(=O)N1CCN(c2ccnc(N[C@@H]3CCCN(c4cccc(F)c4)C3)c2)CC1 (stereo partly drawn) [I-464]
> 200 µM | C=CC(=O)N1CC2(CCN(c3ccnc(N[C@@H]4CCCN(c5cccc(F)c5)C4)c3)CC2)C1 [I-465]
10 to 100 µM | C=CC(=O)NCN1CCN(c2ccnc(N[C@@H]3CCCN(c4cccc(F)c4)C3)c2)CC1 [I-466]
> 200 µM | C=CC(=O)NCc1n[nH]cc1C(=O)N[C@@H](CC(N)=O)c1cccc(Cl)c1 [I-467]
> 200 µM | C=CC(=O)n1ccc(-c2n[nH]cc2C(=O)N[C@@H](CC(N)=O)c2cccc(Cl)c2)n1 [I-468]
> 200 µM | C=CC(=O)N1CCCC(c2[nH]ncc2C(=O)N[C@@H](CC(N)=O)c2cccc(Cl)c2)C1 (stereo partly drawn) [I-469]
> 200 µM | C=CC(=O)NC1CCC(c2n[nH]cc2C(=O)N[C@@H](CC(N)=O)c2cccc(Cl)c2)CC1 (stereo partly drawn) [I-470]
> 200 µM | C=CC(=O)N1CCC(c2n[nH]cc2C(=O)N[C@@H](CC(N)=O)c2cccc(Cl)c2)=N1 [I-471]
> 200 µM | C=CC(=O)n1cc(-c2n[nH]cc2C(=O)N[C@@H](CC(N)=O)c2cccc(Cl)c2)cn1 [I-472]
> 200 µM | C=CC(=O)NC#Cc1n[nH]cc1C(=O)N[C@@H](CC(N)=O)c1cccc(Cl)c1 [I-473]
> 200 µM | C=CC(=O)Nc1ccc(-c2n[nH]cc2C(=O)N[C@@H](CC(N)=O)c2cccc(Cl)c2)cc1 [I-474]
> 200 µM | C=CC(=O)Nc1ccc2[nH]cc(C(=O)N[C@@H](CC(N)=O)c3cccc(Cl)c3)c2c1 [I-475]
> 200 µM | N#Cc1nccc(CN2CCC[C@@H](Nc3cc(N4CCOCC4)ccn3)C2)n1 [I-476]
